{"source": "patent US11166960B2", "about": "“Modified release preparations containing oxcarbazepine and derivatives thereof” (Supernus Pharmaceuticals, Inc., priority 2006, dated 2021)", "key": {"[1]": {"assay": "Solubility of oxcarbazepine in the presence of excipients", "type": "physicochemical", "conditions": "de-ionized water, thermodynamic from solid"}, "[2]": {"assay": "Solubility of oxcarbazepine in the presence of excipients", "type": "physicochemical", "method": "The solubility of oxcarbazepine in the presence of excipients was evaluated as follows: Excipients were dissolved in phosphate buffer to make solutions with concentrations shown in Table 3. One gram of oxcarbazepine was then mixed with 19 gm of the excipient solution. The mixture was rocked overnight at room temperature and then filtered using 0.22 μm filter. The filtrates were analyzed by HPLC."}}, "note": "Read-outs that look alike come from different tables or passages of the source.", "data": [{"smiles": "NC(=O)N1c2ccccc2CC(=O)c2ccccc21", "note": "[Oxcarbazepine]", "values": [{"measurement": "solubility", "setting": "[1]", "result": 273, "unit": "µg/mL"}, {"measurement": "solubility", "setting": "[2]; Kollidon 17 1% w/w in phosphate buffer", "result": 171.7, "unit": "µg/mL"}, {"measurement": "solubility", "setting": "[2]; aqueous with cosolvent or surfactant or cyclodextrin, thermodynamic from solid, Hydroxypropyl betacyclodextrin (HBCD) 5% w/w in phosphate buffer, read-out: Solubility", "result": 1020, "unit": "µg/mL"}, {"measurement": "solubility", "setting": "[2]; aqueous with cosolvent or surfactant or cyclodextrin, thermodynamic from solid, SLS/Stearic Acid/PEG400 5, 1, 1% w/w in phosphate buffer, read-out: Solubility", "result": 3280, "unit": "µg/mL"}, {"measurement": "solubility", "setting": "[2]; phosphate buffer (control, no excipient), aqueous buffer, thermodynamic from solid, Phosphate Buffer Control, room temperature overnight, read-out: Solubility", "result": 401, "unit": "µg/mL"}, {"measurement": "solubility", "setting": "[2]; phosphate buffer with 1% w/w Cremophor RH40, aqueous with cosolvent or surfactant or cyclodextrin, thermodynamic from solid, Cremophor RH40 1% w/w in phosphate buffer, read-out: Solubility", "result": 314, "unit": "µg/mL"}, {"measurement": "solubility", "setting": "[2]; phosphate buffer with 1% w/w SLS and 1% w/w HBCD, aqueous with cosolvent or surfactant or cyclodextrin, thermodynamic from solid, SLS/HBCD 1, 1% w/w in phosphate buffer, read-out: Solubility", "result": 349, "unit": "µg/mL"}, {"measurement": "solubility", "setting": "[2]; phosphate buffer with 5% w/w SLS and 1% w/w PEG400, aqueous with cosolvent or surfactant or cyclodextrin, thermodynamic from solid, SLS/Polyethylene Glycol 400 (PEG400) 5, 1% w/w in phosphate buffer, read-out: Solubility", "result": 3050, "unit": "µg/mL"}, {"measurement": "solubility", "setting": "[2]; phosphate buffer with 5% w/w docusate sodium, aqueous with cosolvent or surfactant or cyclodextrin, thermodynamic from solid, Docusate Sodium 5% w/w in phosphate buffer, read-out: Solubility", "result": 6550, "unit": "µg/mL"}, {"measurement": "solubility", "setting": "[2]; phosphate buffer with 5% w/w sodium lauryl sulfate (SLS), aqueous with cosolvent or surfactant or cyclodextrin, thermodynamic from solid, Sodium Lauryl Sulfate (SLS) 5% w/w in phosphate buffer, read-out: Solubility", "result": 4110, "unit": "µg/mL"}]}]}
